The numbers were not newly measured in patent US20210100740A1, “BIO-ADHESIVE DISSOLVING COMPOUNDS AND DEVICE” (Segal Innovations LLC, priority 2019, published 2021), which cites them from elsewhere.

For `CO[C@@]12[C@H](COC(N)=O)C3=C(C(=O)C(C)=C(N)C3=O)N1C[C@@H]1N[C@@H]12` [mitomycin], where the note is “acidic solutions with a pH of less than 6, exposed to light”, the “degradation in acidic solutions and when exposed to light” value was “rapid degradation”. For the same molecule, for the setting “refrigerated between 2° C. and 8° C. without being exposed to light”, the “how long mitomycin lasts” value is listed as “up to one week”.
